Source: BindingDB's records for patent US20250282794 (Curadev Pharma, 2025)

These molecules were tested against Mitogen-activated protein kinase kinase kinase kinase 1 (Homo sapiens, UniProt Q92918) (assay: HPK-1 biochemical enzyme assay).
Protocol: Compound inhibitory potency was measured in an HPK-1 kinase inhibition assay. Briefly, recombinant full length HPK-1 enzyme (6.8 nM) was incubated with 10 μM ATP and 12.5 μM swine myelin basic protein (MBP) for 30 mins. at 25° C. in the presence of various concentrations of test compound or vehicle in 40 mM Tris.Cl pH7.4 buffer containing 20 mM MgCl2, 50 μM DTT and 0.1 mg/mL BSA. Reactions were quenched and reaction mixtures were then analyzed by an ADP-Glo kit which measures the formed ADP. The percent inhibition was calculated from the substrate conversion considering no enzyme control reactions for 100% inhibition and vehicle only reactions for 0% inhibition. The compounds were dissolved in DMSO and evaluated at 10 concentrations to determine an IC50 value.

Sequence of Mitogen-activated protein kinase kinase kinase kinase 1 (Q92918 whole entry): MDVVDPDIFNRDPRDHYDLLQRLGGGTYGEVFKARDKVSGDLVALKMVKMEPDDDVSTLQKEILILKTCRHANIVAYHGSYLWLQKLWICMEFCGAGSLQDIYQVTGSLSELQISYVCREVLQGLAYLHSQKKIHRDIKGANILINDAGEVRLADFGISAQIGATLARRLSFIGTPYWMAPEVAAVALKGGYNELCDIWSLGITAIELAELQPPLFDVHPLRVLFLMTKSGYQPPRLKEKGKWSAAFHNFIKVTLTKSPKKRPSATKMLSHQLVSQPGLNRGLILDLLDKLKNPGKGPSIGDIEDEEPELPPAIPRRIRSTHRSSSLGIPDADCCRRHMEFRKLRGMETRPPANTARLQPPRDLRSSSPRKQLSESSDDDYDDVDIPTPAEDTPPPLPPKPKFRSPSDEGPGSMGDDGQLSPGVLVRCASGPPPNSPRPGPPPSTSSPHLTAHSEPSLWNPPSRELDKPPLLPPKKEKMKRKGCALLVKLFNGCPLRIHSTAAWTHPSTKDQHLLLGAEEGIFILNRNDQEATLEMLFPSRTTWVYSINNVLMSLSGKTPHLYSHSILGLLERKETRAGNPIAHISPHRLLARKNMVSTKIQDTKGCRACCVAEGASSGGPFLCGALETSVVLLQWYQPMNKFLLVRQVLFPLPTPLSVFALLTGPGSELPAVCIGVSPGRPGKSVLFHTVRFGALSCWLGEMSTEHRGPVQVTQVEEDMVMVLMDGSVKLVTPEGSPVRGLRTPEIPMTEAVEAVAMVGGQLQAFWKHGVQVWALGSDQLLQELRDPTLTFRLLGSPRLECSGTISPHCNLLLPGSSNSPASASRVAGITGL

IC50 [nM] | Compound
< 10 | Cc1c(Nc2cc[nH]c(=O)c2C(=O)Nc2ccc(N3CCN(C(=O)C4CCC4)CC3)cc2)cnc2c1NCCO2 [US20250282794, Example 314]
< 10 | Cc1c(Nc2cc[nH]c(=O)c2C(=O)Nc2ccc(C3CCN(C(C)C)CC3)cc2)cnc2c1NCCO2 [US20250282794, Example 279]
< 10 | COCCN1CCN(c2ccc(NC(=O)c3c(Nc4cnc5c(c4C)NCCO5)cc[nH]c3=O)cc2C)CC1 [US20250282794, Example 275]
< 10 | Cc1c(Nc2cc[nH]c(=O)c2C(=O)Nc2ccc(N3CCC(O)(CN(C)C)CC3)c(F)c2)cnc2c1NCC(C)O2 (stereo unspecified) [US20250282794, Example 388]
< 10 | COCCCN1CCN(c2ccc(NC(=O)c3c(Nc4cnc5c(c4C)NCCO5)cc[nH]c3=O)cc2)CC1 [US20250282794, Example 277]
< 10 | Cc1c(Nc2cc[nH]c(=O)c2C(=O)Nc2ccc(N3CCC(O)CC3)cc2)cnc2c1NCCO2 [US20250282794, Example 278]
< 10 | Cc1c(Nc2cc[nH]c(=O)c2C(=O)Nc2ccc(N3CCN(c4ccccn4)CC3)cc2)cnc2c1NCCO2 [US20250282794, Example 289]
< 10 | Cc1c(Nc2cc[nH]c(=O)c2C(=O)Nc2ccc(N3CCN(C4CCCC4)CC3)c(N)c2)cnc2c1NCCO2 [US20250282794, Example 311]
< 10 | COCCN1CCN(c2ccc(NC(=O)c3c(Nc4cnc5c(c4C)NCCO5)cc[nH]c3=O)cc2F)CC1 [US20250282794, Example 194]
10 to 100 | Cc1c(Nc2cc[nH]c(=O)c2C(=O)Nc2ccc(-c3ccccc3)cc2)cnc2c1NCCO2 [US20250282794, Example 331]
< 10 | Cc1c(Nc2cc[nH]c(=O)c2C(=O)Nc2ccc(N3CCN(C)CC3)c(CN)c2)cnc2c1NCCO2 [US20250282794, Example 393]
